Laboratory results reported in ChEMBL document CHEMBL3885881, “DrugMatrix”.

Organism: Rattus norvegicus
Test: DrugMatrix - Regimen: Daily Repeat
Assay type: toxicity, organism-based, Sprague-Dawley
Parameters: regimen Daily Repeat, gender Male, age 6-8 weeks
Conditions: in vivo, po, 0 mg/kg, route oral GAVAGE, dose level Control, vehicle 100 % WATER; for ABSOLUTE BASOPHIL / ABSOLUTE EOSINOPHIL / ABSOLUTE LYMPHOCYTE / ABSOLUTE MONOCYTE / ABSOLUTE SEGMENTED NEUTROPHIL / BASOPHIL / EOSINOPHIL / ERYTHROCYTE COUNT / HEMATOCRIT / HEMOGLOBIN / LEUKOCYTE COUNT / LYMPHOCYTE / MEAN CORPUSCULAR HEMOGLOBIN / MEAN CORPUSCULAR HEMOGLOBIN CONCENTRATION / MEAN CORPUSCULAR VOLUME / MONOCYTE / NEUTROPHIL / NUCLEATED RED BLOOD CELLS / PLATELET COUNT: tissue Blood; for ALANINE AMINOTRANSFERASE / ALBUMIN / ALKALINE PHOSPHATASE / ASPARTATE AMINOTRANSFERASE / BLOOD UREA NITROGEN / CARBON DIOXIDE / CHLORIDE / CHOLESTEROL / CREATINE PHOSPHOKINASE / CREATININE / GLUCOSE / LACTATE DEHYDROGENASE / LIPASE / PHOSPHORUS / POTASSIUM / SODIUM / TOTAL BILIRUBIN / TOTAL PROTEIN / URIC ACID: tissue Plasma

Q: For CN(C)CCOC(c1ccccc1)c1ccccc1 [DIPHENHYDRAMINE], which “ABSOLUTE BASOPHIL” value (72 h, time 3 day) is on record?
A: 0 CELLS/uL

Q: What about the “ABSOLUTE EOSINOPHIL” value (72 h, time 3 day) of the same compound?
A: 20.17 CELLS/uL

Q: And the “ABSOLUTE LYMPHOCYTE” value (72 h, time 3 day)?
A: 12371.67 CELLS/uL

Q: And the “ABSOLUTE MONOCYTE” value (72 h, time 3 day)?
A: 166 CELLS/uL

Q: And the “ABSOLUTE SEGMENTED NEUTROPHIL” value (72 h, time 3 day)?
A: 1292.17 CELLS/uL

Q: What about the BASOPHIL (72 h, time 3 day) of the same compound?
A: 0%

Q: What about the EOSINOPHIL (72 h, time 3 day) of the same compound?
A: 0.17%

Q: And the “ERYTHROCYTE COUNT” value (72 h, time 3 day)?
A: 5.46 x10E6/uL

Q: What about the HEMATOCRIT (72 h, time 3 day) of the same compound?
A: 34.38%

Q: And the HEMOGLOBIN (72 h, time 3 day)?
A: 13.32 G/DL

Q: What about the “LEUKOCYTE COUNT” value (72 h, time 3 day) of the same compound?
A: 13.85 x10E3/uL

Q: And the LYMPHOCYTE (72 h, time 3 day)?
A: 88.5%

Q: And the “MEAN CORPUSCULAR HEMOGLOBIN” value (72 h, time 3 day)?
A: 24.42 pg

Q: What about the “MEAN CORPUSCULAR HEMOGLOBIN CONCENTRATION” value (72 h, time 3 day) of the same compound?
A: 38.7 G/DL

Q: What about the “MEAN CORPUSCULAR VOLUME” value (72 h, time 3 day) of the same compound?
A: 63.07 fL

Q: And the MONOCYTE (72 h, time 3 day)?
A: 1.17%

Q: What about the NEUTROPHIL (72 h, time 3 day) of the same compound?
A: 10.17%

Q: And the “NUCLEATED RED BLOOD CELLS” value (72 h, time 3 day)?
A: 0.17 /100WBC

Q: And the “PLATELET COUNT” value (72 h, time 3 day)?
A: 1193.5 x10E3/uL

Q: What about the “ALANINE AMINOTRANSFERASE” value (72 h, time 3 day) of the same compound?
A: 54.5 u/L

Q: And the ALBUMIN (72 h, time 3 day)?
A: 4.02 G/DL

Q: What about the “ALKALINE PHOSPHATASE” value (72 h, time 3 day) of the same compound?
A: 346.5 u/L

Q: And the “ASPARTATE AMINOTRANSFERASE” value (72 h, time 3 day)?
A: 103.17 u/L

Q: What about the “BLOOD UREA NITROGEN” value (72 h, time 3 day) of the same compound?
A: 16.5 mg/dL

Q: What about the “CARBON DIOXIDE” value (72 h, time 3 day) of the same compound?
A: 29.83 mmol/L

Q: And the CHLORIDE (72 h, time 3 day)?
A: 99.5 MEQ/L

Q: What about the CHOLESTEROL (72 h, time 3 day) of the same compound?
A: 72.5 mg/dL

Q: And the “CREATINE PHOSPHOKINASE” value (72 h, time 3 day)?
A: 532.5 u/L

Q: What about the CREATININE (72 h, time 3 day) of the same compound?
A: 0.18 mg/dL

Q: And the GLUCOSE (72 h, time 3 day)?
A: 168.5 mg/dL

Q: And the “LACTATE DEHYDROGENASE” value (72 h, time 3 day)?
A: 536.5 u/L

Q: What about the LIPASE (72 h, time 3 day) of the same compound?
A: 11.17 u/L

Q: And the PHOSPHORUS (72 h, time 3 day)?
A: 11.48 mg/dL

Q: What about the POTASSIUM (72 h, time 3 day) of the same compound?
A: 5.95 MEQ/L

Q: What about the SODIUM (72 h, time 3 day) of the same compound?
A: 140.5 MEQ/L

Q: What about the “TOTAL BILIRUBIN” value (72 h, time 3 day) of the same compound?
A: 0.18 mg/dL

Q: And the “TOTAL PROTEIN” value (72 h, time 3 day)?
A: 5.77 G/DL

Q: What about the “URIC ACID” value (72 h, time 3 day) of the same compound?
A: 1.42 mg/dL

Q: What about the “ABSOLUTE BASOPHIL” value (120 h, time 5 day) of the same compound?
A: 0 CELLS/uL

Q: What about the “ABSOLUTE EOSINOPHIL” value (120 h, time 5 day) of the same compound?
A: 22.83 CELLS/uL

Q: What about the “ABSOLUTE LYMPHOCYTE” value (120 h, time 5 day) of the same compound?
A: 12202.83 CELLS/uL

Q: And the “ABSOLUTE MONOCYTE” value (120 h, time 5 day)?
A: 158 CELLS/uL

Q: What about the “ABSOLUTE SEGMENTED NEUTROPHIL” value (120 h, time 5 day) of the same compound?
A: 1283 CELLS/uL

Q: What about the BASOPHIL (120 h, time 5 day) of the same compound?
A: 0%

Q: And the EOSINOPHIL (120 h, time 5 day)?
A: 0.17%

Q: And the “ERYTHROCYTE COUNT” value (120 h, time 5 day)?
A: 5.88 x10E6/uL

Q: And the HEMATOCRIT (120 h, time 5 day)?
A: 36.62%

Q: And the HEMOGLOBIN (120 h, time 5 day)?
A: 14.07 G/DL

Q: What about the “LEUKOCYTE COUNT” value (120 h, time 5 day) of the same compound?
A: 13.67 x10E3/uL

Q: What about the LYMPHOCYTE (120 h, time 5 day) of the same compound?
A: 89.5%

Q: And the “MEAN CORPUSCULAR HEMOGLOBIN” value (120 h, time 5 day)?
A: 23.95 pg

Q: What about the “MEAN CORPUSCULAR HEMOGLOBIN CONCENTRATION” value (120 h, time 5 day) of the same compound?
A: 38.43 G/DL

Q: What about the “MEAN CORPUSCULAR VOLUME” value (120 h, time 5 day) of the same compound?
A: 62.28 fL

Q: What about the MONOCYTE (120 h, time 5 day) of the same compound?
A: 1.17%

Q: And the NEUTROPHIL (120 h, time 5 day)?
A: 9.17%

Q: And the “NUCLEATED RED BLOOD CELLS” value (120 h, time 5 day)?
A: 0.17 /100WBC

Q: What about the “PLATELET COUNT” value (120 h, time 5 day) of the same compound?
A: 1198 x10E3/uL

Q: What about the “ALANINE AMINOTRANSFERASE” value (120 h, time 5 day) of the same compound?
A: 51 u/L

Q: What about the ALBUMIN (120 h, time 5 day) of the same compound?
A: 4.3 G/DL

Q: What about the “ALKALINE PHOSPHATASE” value (120 h, time 5 day) of the same compound?
A: 343 u/L

Q: What about the “ASPARTATE AMINOTRANSFERASE” value (120 h, time 5 day) of the same compound?
A: 89.83 u/L

Q: And the “BLOOD UREA NITROGEN” value (120 h, time 5 day)?
A: 17.67 mg/dL

Q: And the “CARBON DIOXIDE” value (120 h, time 5 day)?
A: 27.17 mmol/L

Q: What about the CHLORIDE (120 h, time 5 day) of the same compound?
A: 98.33 MEQ/L

Q: What about the CHOLESTEROL (120 h, time 5 day) of the same compound?
A: 82.5 mg/dL

Q: And the “CREATINE PHOSPHOKINASE” value (120 h, time 5 day)?
A: 533.33 u/L

Q: And the CREATININE (120 h, time 5 day)?
A: 0.18 mg/dL

Q: What about the GLUCOSE (120 h, time 5 day) of the same compound?
A: 152.67 mg/dL

Q: What about the “LACTATE DEHYDROGENASE” value (120 h, time 5 day) of the same compound?
A: 220.33 u/L

Q: What about the LIPASE (120 h, time 5 day) of the same compound?
A: 11.5 u/L

Q: What about the PHOSPHORUS (120 h, time 5 day) of the same compound?
A: 11.25 mg/dL

Q: What about the POTASSIUM (120 h, time 5 day) of the same compound?
A: 6.29 MEQ/L

Q: And the SODIUM (120 h, time 5 day)?
A: 140.53 MEQ/L

Q: What about the “TOTAL BILIRUBIN” value (120 h, time 5 day) of the same compound?
A: 0.22 mg/dL

Q: What about the “TOTAL PROTEIN” value (120 h, time 5 day) of the same compound?
A: 6.12 G/DL

Q: What about the “URIC ACID” value (120 h, time 5 day) of the same compound?
A: 1.42 mg/dL
